Results as given in US12059565B1, “Methods and systems for modulating unconsciousness or anesthesia in a subject” (priority 2019, dated 2024).

Tests used:
[1] = tested on: EEG SWA / behavioral responsiveness; conditions: during TCI dexmedetomidine sedation; expected, based on Sleigh and colleagues
Text: Participants will undergo three arousals during this phase of the experiment: one during in-phase stimulation, one during anti-phase stimulation, and one during sham stimulation (FIG. 13). The order of CLASS conditions under which a participant will be aroused is the same as in Phase 2, which is balanced across participants. Each arousal will be preceded by at least three consecutive minutes of acoustic stimulation, which will continue during the arousal procedure. The arousal procedure consists of the same ramping thermal stimulation used during pre-sedation QST. The cardinal difference between pre-sedation QST and arousal QST is that one of the investigators will be tasked with pressing the button to end the thermal ramp instead of the sedated participant. The investigator will end the arousal protocol as soon as they observe purposeful behavior in response to the thermal stimulation. The investigator will also be able to terminate the thermal stimulation at their clinical discretion. Vital signs, EEG, and video recording will allow review of the time of arousal during post-hoc analysis. […] Assessors of arousal will be blinded to the acoustic stimulation conditions. Once a participant has been definitively aroused, thermal stimulation will cease. […]

alpha2 receptors = conditions: cited from earlier work
[2] = infused for several hours to days at 1.5 mcg/kg/hr, critically ill patients; cited from earlier work
[3] = healthy volunteers; conservative estimate; cited from earlier work
[4] = target effect site concentrations of 2.0-4.0 ng/ml, most participants

Cc1cccc([C@H](C)c2cnc[nH]2)c1C [dexmedetomidine]
time for EEG SWA to return to pre-arousal levels [1]: ≤ 10 min
time to return to a state of unresponsiveness after thermal arousal [1]: ≤ 60 s
most common adverse events (alpha2 receptors; dexmedetomidine infusions): bradycardia, hypotension and hypertension
haemodynamic effect at low plasma concentrations (alpha2 receptors; plasma concentration <1 ng/ml, agonism at alpha2 receptors in the central nervous system): decrease in peripheral vascular resistance and heart rate
haemodynamic effect at higher plasma concentrations (alpha2 receptors; plasma concentration >4 ng/ml, agonism at alpha2 receptors on vascular smooth muscle): hypertension and worsening reflex bradycardia
HR (alpha2 receptors; [4]): > 75 % from baseline
MAP (alpha2 receptors; [4]): near-baseline
level of sedation (alpha2 receptors; [4]): moderately sedated
steady-state concentration [2]: 2.5 to 3.0 ng/mL
equilibration constant (t1/2 ke0) [3]: 3 min
